Measured values reported in patent US20260174875A1 (Novo Nordisk A/S, priority 2023, published 2026).

Assay: Chemical stability assessment in formulation (UPLC-UV-MS purity loss at 37° C.)
Format: physicochemical
Settings: 8 mM phosphate buffer pH 7.4, 1 mg/mL, 2 weeks
Protocol: The assay was performed to investigate the extend of chemical degradation in vitro over time upon incubation at 37° C. for a period of 2 weeks.
Peptide solutions were prepared by dissolving freeze-dried powder in 8 mM phosphate buffer pH 7.4 to a target of 1 mg/mL. The pH of peptide solutions was adjusted to 7.4 with 0.02 M HCl or 0.02 M NaOH. Samples were filled in Agilent HPLC vials with fixed insert. Vials were capped to prevent evaporation. The HPLC vials were incubated at 37° C. and samples were withdrawn at different time points over a period of 2 weeks, flash frozen at −80° C., and stored at −20° C. until analysis.
A flow-rate of 100 μL/min was delivered with a Binary solvent manager pump having 0.1% formic acid in water as solvent A and 0.1% formic acid in acetonitrile as solvent B. Gradient elution was carried out using 20% B from 0 to 2 min followed by 20 to 50% B from 2 to 20 min in a total run time of 30 min.

Purity loss per week at 37° C. | SMILES
0.7% | CC[C@H](C)[C@H](NC(=O)[C@H](CCC(=O)O)NC(=O)[C@H](CCC(=O)O)NC(=O)[C@H](CC(C)C)NC(=O)[C@H](CC(C)C)NC(=O)[C@@H](NC(=O)[C@H](CO)NC(=O)[C@H](Cc1ccc(O)cc1)NC(=O)[C@H](CC(=O)O)NC(=O)[C@H](CO)NC(=O)[C@@H](NC(=O)[C@H](Cc1ccccc1)NC(=O)[C@@H](NC(=O)CNC(=O)[C@H](CCC(=O)O)NC(=O)C(C)(C)NC(=O)[C@@H](N)Cc1ccc(O)cc1)[C@@H](C)O)[C@@H](C)O)[C@@H](C)CC)C(=O)N[C@@H](C)C(=O)N[C@@H](C)C(=O)N[C@@H](CCCNC(=N)N)C(=O)N[C@@H](CCC(=O)O)C(=O)N[C@@H](Cc1ccccc1)C(=O)N[C@H](C(=O)N[C@@H](CCC(=O)O)C(=O)N[C@@H](Cc1c[nH]c2ccccc12)C(=O)N[C@@H](CC(C)C)C(=O)N[C@@H](CC(C)C)C(=O)N[C@@H](C)C(=O)NCC(=O)NCC(=O)N1CCC[C@H]1C(=O)N[C@@H](CO)C(=O)N[C@@H](CO)C(=O)NCC(=O)N[C@@H](C)C(=O)NCC(=O)N[C@@H](C)C(=O)N[C@@H](CO)C(=O)N[C@@H](CCC(N)=O)C(=O)N[C@@H](CC(C)C)C(=O)N[C@@H](CO)C(=O)N[C@H](C(=O)N[C@@H](C)C(=O)N[C@@H](CCC(N)=O)C(=O)N[C@H](C(=O)N[C@@H](CCC(N)=O)C(=O)N[C@@H](CCCNC(=N)N)C(=O)N[C@@H](CC(C)C)C(=O)N[C@@H](CO)C(=O)N[C@@H](C)C(=O)N[C@@H](CCC(=O)O)C(=O)N[C@@H](CC(C)C)C(=O)N[C@@H](Cc1c[nH]cn1)C(=O)N[C@@H](CCCCNC(=O)COCCOCCNC(=O)COCCOCCNC(=O)CC[C@H](NC(=O)CCCCCCCCCCCCCCCCCCC(=O)O)C(=O)O)C(=O)N[C@@H](CC(C)C)C(=O)N[C@@H](C)C(=O)N[C@H](C(=O)N[C@@H](CCC(=O)O)C(=O)N1CCC[C@H]1C(=O)N[C@@H](CCCNC(=N)N)C(=O)N[C@H](C(=O)N[C@@H](CCC(=O)O)C(=O)N[C@H](C(=O)NCC(=O)N[C@@H](CO)C(=O)NCC(=O)N[C@@H](CO)C(=O)N1CCC[C@H]1C(N)=O)[C@@H](C)O)[C@@H](C)O)[C@@H](C)O)[C@@H](C)O)[C@@H](C)O)[C@@H](C)CC [Compound 180]
1.0% | CC[C@H](C)[C@H](NC(=O)[C@H](CCC(=O)O)NC(=O)[C@H](CCC(=O)O)NC(=O)[C@H](CC(C)C)NC(=O)[C@H](CC(C)C)NC(=O)[C@H](CCCCNC(=O)COCCOCCNC(=O)COCCOCCNC(=O)CC[C@H](NC(=O)CCCCCCCCCCCCCCCCCCC(=O)O)C(=O)O)NC(=O)[C@H](CO)NC(=O)[C@H](Cc1ccc(O)cc1)NC(=O)[C@H](CC(=O)O)NC(=O)[C@H](CO)NC(=O)[C@@H](NC(=O)[C@H](Cc1ccccc1)NC(=O)[C@@H](NC(=O)CNC(=O)[C@H](CCC(=O)O)NC(=O)C(C)(C)NC(=O)[C@@H](N)Cc1ccc(O)cc1)[C@@H](C)O)[C@@H](C)O)C(=O)N[C@@H](C)C(=O)N[C@@H](C)C(=O)N[C@@H](CCCNC(=N)N)C(=O)N[C@@H](CCC(=O)O)C(=O)N[C@@H](Cc1ccccc1)C(=O)N[C@H](C(=O)N[C@@H](CCC(=O)O)C(=O)N[C@@H](Cc1c[nH]c2ccccc12)C(=O)N[C@@H](CC(C)C)C(=O)N[C@@H](CC(C)C)C(=O)N[C@@H](C)C(=O)NCC(=O)NCC(=O)N1CCC[C@H]1C(=O)N[C@@H](CO)C(=O)N[C@@H](CO)C(=O)NCC(=O)N[C@@H](C)C(=O)NCC(=O)N[C@@H](C)C(=O)N[C@@H](CO)C(=O)N[C@@H](CCC(=O)O)C(=O)N[C@@H](CC(C)C)C(=O)N[C@@H](CO)C(=O)N[C@H](C(=O)N[C@@H](C)C(=O)N[C@@H](CCC(N)=O)C(=O)N[C@@H](CC(C)C)C(=O)NCC(=O)N[C@@H](CCCNC(=N)N)C(=O)N[C@@H](CC(C)C)C(=O)N[C@@H](CO)C(=O)N[C@@H](C)C(=O)N[C@@H](CCC(=O)O)C(=O)N[C@@H](CC(C)C)C(=O)N[C@@H](Cc1c[nH]cn1)C(=O)N[C@@H](CCC(N)=O)C(=O)N[C@@H](CC(C)C)C(=O)N[C@@H](C)C(=O)N[C@H](C(=O)N[C@@H](CCC(=O)O)C(=O)N1CCC[C@H]1C(=O)N[C@@H](CCCNC(=N)N)C(=O)N[C@H](C(=O)N[C@@H](CCC(=O)O)C(=O)N[C@H](C(=O)NCC(=O)N[C@@H](CO)C(=O)NCC(=O)N[C@@H](CO)C(=O)N1CCC[C@H]1C(N)=O)[C@@H](C)O)[C@@H](C)O)[C@@H](C)O)[C@@H](C)O)[C@@H](C)CC [Compound 186]
1.0% | CC[C@H](C)[C@H](NC(=O)[C@H](CCC(=O)O)NC(=O)[C@H](CCC(=O)O)NC(=O)[C@H](CC(C)C)NC(=O)[C@H](CC(C)C)NC(=O)[C@@H](NC(=O)[C@H](CO)NC(=O)[C@H](Cc1ccc(O)cc1)NC(=O)[C@H](CC(=O)O)NC(=O)[C@H](CO)NC(=O)[C@@H](NC(=O)[C@H](Cc1ccccc1)NC(=O)[C@@H](NC(=O)CNC(=O)[C@H](CCC(=O)O)NC(=O)C(C)(C)NC(=O)[C@@H](N)Cc1ccc(O)cc1)[C@@H](C)O)[C@@H](C)O)[C@@H](C)CC)C(=O)N[C@@H](C)C(=O)N[C@@H](C)C(=O)N[C@@H](CCCNC(=N)N)C(=O)N[C@@H](CCC(=O)O)C(=O)N[C@@H](Cc1ccccc1)C(=O)N[C@H](C(=O)N[C@@H](CCC(=O)O)C(=O)N[C@@H](Cc1c[nH]c2ccccc12)C(=O)N[C@@H](CC(C)C)C(=O)N[C@@H](CC(C)C)C(=O)N[C@@H](C)C(=O)NCC(=O)NCC(=O)N1CCC[C@H]1C(=O)N[C@@H](CO)C(=O)N[C@@H](CO)C(=O)NCC(=O)N[C@@H](C)C(=O)NCC(=O)N[C@@H](CCC(N)=O)C(=O)N[C@@H](C)C(=O)N1CCC[C@H]1C(=O)NCC(=O)N[C@@H](CCC(N)=O)C(=O)N[C@@H](C)C(=O)N1CCC[C@H]1C(=O)NCC(=O)N[C@@H](C)C(=O)N[C@@H](CO)C(=O)N[C@@H](Cc1c[nH]cn1)C(=O)N[C@@H](CC(C)C)C(=O)N[C@@H](CO)C(=O)N[C@H](C(=O)N[C@@H](C)C(=O)N[C@@H](CCC(N)=O)C(=O)N[C@H](C(=O)N[C@@H](CCC(N)=O)C(=O)N[C@@H](CCCNC(=N)N)C(=O)N[C@@H](CC(C)C)C(=O)N[C@@H](CO)C(=O)N[C@@H](C)C(=O)N[C@@H](CCC(=O)O)C(=O)N[C@@H](CC(C)C)C(=O)N[C@@H](Cc1c[nH]cn1)C(=O)N[C@@H](CCCCNC(=O)COCCOCCNC(=O)COCCOCCNC(=O)CC[C@H](NC(=O)CCCCCCCCCCCCCCCCCCC(=O)O)C(=O)O)C(=O)N[C@@H](CC(C)C)C(=O)N[C@@H](C)C(=O)N[C@H](C(=O)N[C@@H](CCC(=O)O)C(=O)N1CCC[C@H]1C(=O)N[C@@H](CCCNC(=N)N)C(=O)N[C@H](C(=O)N[C@@H](CCC(=O)O)C(=O)N[C@H](C(=O)NCC(=O)N[C@@H](CO)C(=O)NCC(=O)N[C@@H](CO)C(=O)N1CCC[C@H]1C(N)=O)[C@@H](C)O)[C@@H](C)O)[C@@H](C)O)[C@@H](C)O)[C@@H](C)O)[C@@H](C)CC [Compound 162]
